Laboratory results reported in patent US9682995B2, “Amino-substituted isothiazoles” (BAYER PHARMA AKTIENGESELLSCHAFT, priority 2013, dated 2017).

Tests used:
Assay in all cases: Kinase Profiling (KINOMEscan)
Type in all cases: binding
[1] = molecular target: 456 kinases (of these 395 non-mutant kinases) (Homo sapiens, UniProt Q9Y2H1); conditions: NDR2; 10 μM
[2] = molecular target: 456 kinases (of these 395 non-mutant kinases) (Homo sapiens, UniProt P37173); conditions: TGFBR2; 10 μM
[3] = molecular target: 456 kinases (of these 395 non-mutant kinases) (Homo sapiens, UniProt Q13523); conditions: PRP4; 10 μM
[4] = molecular target: 456 kinases (of these 395 non-mutant kinases) (Homo sapiens, UniProt Q04759); conditions: PRKCQ; 10 μM
[5] = molecular target: 456 kinases (of these 395 non-mutant kinases) (Homo sapiens, UniProt P0C264); conditions: SgK110; 10 μM
[6] = molecular target: 456 kinases (of these 395 non-mutant kinases) (Homo sapiens, UniProt P28482); conditions: ERK2; 10 μM
[7] = molecular target: 456 kinases (of these 395 non-mutant kinases) (Homo sapiens, UniProt P21860); conditions: ERBB3; 10 μM
[8] = molecular target: 456 kinases (of these 395 non-mutant kinases) (Homo sapiens, UniProt Q9UM73, L1196M); conditions: ALK(L1196M); 10 μM
456 kinases (of these 395 non-mutant kinases) (Homo sapiens, UniProt Q9UM73, L1196M), sequence (Q9UM73 19-1620 L1196M limits assumed): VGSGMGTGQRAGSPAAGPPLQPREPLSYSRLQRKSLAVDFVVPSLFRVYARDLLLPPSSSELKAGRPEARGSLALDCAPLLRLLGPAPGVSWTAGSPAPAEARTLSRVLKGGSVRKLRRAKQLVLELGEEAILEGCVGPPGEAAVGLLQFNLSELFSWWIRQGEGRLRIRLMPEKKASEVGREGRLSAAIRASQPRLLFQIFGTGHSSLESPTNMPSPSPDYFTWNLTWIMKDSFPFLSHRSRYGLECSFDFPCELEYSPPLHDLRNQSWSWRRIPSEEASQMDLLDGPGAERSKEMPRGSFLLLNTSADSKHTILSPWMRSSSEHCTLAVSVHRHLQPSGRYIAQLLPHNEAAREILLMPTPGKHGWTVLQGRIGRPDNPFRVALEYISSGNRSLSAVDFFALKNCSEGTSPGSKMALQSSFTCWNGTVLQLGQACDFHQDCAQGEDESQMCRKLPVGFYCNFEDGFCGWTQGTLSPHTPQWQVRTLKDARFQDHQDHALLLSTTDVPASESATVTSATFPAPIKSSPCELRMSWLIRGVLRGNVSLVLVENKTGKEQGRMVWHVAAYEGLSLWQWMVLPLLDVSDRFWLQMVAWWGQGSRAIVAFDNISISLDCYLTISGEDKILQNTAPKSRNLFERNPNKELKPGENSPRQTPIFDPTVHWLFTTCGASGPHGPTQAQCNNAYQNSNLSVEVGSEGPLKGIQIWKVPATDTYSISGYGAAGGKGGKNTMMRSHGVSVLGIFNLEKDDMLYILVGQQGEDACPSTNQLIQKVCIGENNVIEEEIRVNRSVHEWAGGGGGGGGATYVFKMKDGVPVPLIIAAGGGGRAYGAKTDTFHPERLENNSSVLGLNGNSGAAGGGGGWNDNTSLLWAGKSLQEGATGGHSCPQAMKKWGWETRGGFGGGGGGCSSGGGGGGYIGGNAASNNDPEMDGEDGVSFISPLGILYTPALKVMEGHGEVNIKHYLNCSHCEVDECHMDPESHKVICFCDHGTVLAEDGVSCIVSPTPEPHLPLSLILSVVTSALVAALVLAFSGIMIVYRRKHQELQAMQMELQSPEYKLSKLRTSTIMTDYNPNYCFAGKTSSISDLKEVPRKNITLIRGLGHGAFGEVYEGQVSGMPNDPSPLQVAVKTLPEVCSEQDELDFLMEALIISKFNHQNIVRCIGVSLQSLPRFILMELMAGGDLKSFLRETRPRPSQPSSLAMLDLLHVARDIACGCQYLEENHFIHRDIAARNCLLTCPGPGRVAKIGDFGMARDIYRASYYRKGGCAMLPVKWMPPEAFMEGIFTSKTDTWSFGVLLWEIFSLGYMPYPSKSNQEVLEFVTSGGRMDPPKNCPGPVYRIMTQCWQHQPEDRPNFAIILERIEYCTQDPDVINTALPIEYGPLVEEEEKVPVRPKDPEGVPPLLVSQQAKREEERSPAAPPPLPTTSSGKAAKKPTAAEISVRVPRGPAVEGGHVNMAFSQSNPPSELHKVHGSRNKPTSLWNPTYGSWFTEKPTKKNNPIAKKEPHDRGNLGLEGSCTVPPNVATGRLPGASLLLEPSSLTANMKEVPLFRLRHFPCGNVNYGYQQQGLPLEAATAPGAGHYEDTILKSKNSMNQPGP

[9] = molecular target: 456 kinases (of these 395 non-mutant kinases) (Homo sapiens, UniProt P15735); conditions: PHKG2; 10 μM
[10] = molecular target: 456 kinases (of these 395 non-mutant kinases) (Homo sapiens, UniProt P49674); conditions: CSNK1E; 10 μM
[11] = molecular target: 456 kinases (of these 395 non-mutant kinases) (Homo sapiens, UniProt Q96GD4); conditions: AURKB; 10 μM
[12] = molecular target: 456 kinases (of these 395 non-mutant kinases) (Homo sapiens, UniProt Q8WU08); conditions: YANK1; 10 μM
456 kinases (of these 395 non-mutant kinases) (Homo sapiens, UniProt Q8WU08), sequence (Q8WU08 2-396 limits assumed, change not shown): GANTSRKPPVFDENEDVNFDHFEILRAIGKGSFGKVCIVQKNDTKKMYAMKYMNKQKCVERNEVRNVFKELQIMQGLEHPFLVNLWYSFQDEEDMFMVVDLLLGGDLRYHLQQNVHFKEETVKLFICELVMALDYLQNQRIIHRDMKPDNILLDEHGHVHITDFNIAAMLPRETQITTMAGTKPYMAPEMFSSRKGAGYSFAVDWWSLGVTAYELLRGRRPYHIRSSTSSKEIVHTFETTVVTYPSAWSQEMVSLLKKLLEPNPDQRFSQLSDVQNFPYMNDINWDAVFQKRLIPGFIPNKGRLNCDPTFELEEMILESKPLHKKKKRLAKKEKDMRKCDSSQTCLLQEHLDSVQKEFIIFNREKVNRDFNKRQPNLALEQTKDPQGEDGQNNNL

[13] = molecular target: 456 kinases (of these 395 non-mutant kinases) (Homo sapiens, UniProt P31749); conditions: AKT1; 10 μM
[14] = molecular target: 456 kinases (of these 395 non-mutant kinases) (Homo sapiens, UniProt P10721, V559D); conditions: KIT(V559D); 10 μM
[15] = molecular target: 456 kinases (of these 395 non-mutant kinases) (Homo sapiens, UniProt P29317); conditions: EPHA2; 10 μM
[16] = molecular target: 456 kinases (of these 395 non-mutant kinases) (Homo sapiens, UniProt Q9NYL2); conditions: ZAK; 10 μM
[17] = molecular target: 456 kinases (of these 395 non-mutant kinases) (Homo sapiens, UniProt Q15349); conditions: 10 μM
[18] = molecular target: 456 kinases (of these 395 non-mutant kinases) (Homo sapiens, UniProt P51617); conditions: IRAKI; 10 μM
[19] = molecular target: 456 kinases (of these 395 non-mutant kinases) (Homo sapiens, UniProt P36507); conditions: MEK2; 10 μM
[20] = molecular target: 456 kinases (of these 395 non-mutant kinases) (Homo sapiens, UniProt Q13164); conditions: ERK5; 10 μM
456 kinases (of these 395 non-mutant kinases) (Homo sapiens, UniProt Q13164), sequence (Q13164 2-816 limits assumed, change not shown): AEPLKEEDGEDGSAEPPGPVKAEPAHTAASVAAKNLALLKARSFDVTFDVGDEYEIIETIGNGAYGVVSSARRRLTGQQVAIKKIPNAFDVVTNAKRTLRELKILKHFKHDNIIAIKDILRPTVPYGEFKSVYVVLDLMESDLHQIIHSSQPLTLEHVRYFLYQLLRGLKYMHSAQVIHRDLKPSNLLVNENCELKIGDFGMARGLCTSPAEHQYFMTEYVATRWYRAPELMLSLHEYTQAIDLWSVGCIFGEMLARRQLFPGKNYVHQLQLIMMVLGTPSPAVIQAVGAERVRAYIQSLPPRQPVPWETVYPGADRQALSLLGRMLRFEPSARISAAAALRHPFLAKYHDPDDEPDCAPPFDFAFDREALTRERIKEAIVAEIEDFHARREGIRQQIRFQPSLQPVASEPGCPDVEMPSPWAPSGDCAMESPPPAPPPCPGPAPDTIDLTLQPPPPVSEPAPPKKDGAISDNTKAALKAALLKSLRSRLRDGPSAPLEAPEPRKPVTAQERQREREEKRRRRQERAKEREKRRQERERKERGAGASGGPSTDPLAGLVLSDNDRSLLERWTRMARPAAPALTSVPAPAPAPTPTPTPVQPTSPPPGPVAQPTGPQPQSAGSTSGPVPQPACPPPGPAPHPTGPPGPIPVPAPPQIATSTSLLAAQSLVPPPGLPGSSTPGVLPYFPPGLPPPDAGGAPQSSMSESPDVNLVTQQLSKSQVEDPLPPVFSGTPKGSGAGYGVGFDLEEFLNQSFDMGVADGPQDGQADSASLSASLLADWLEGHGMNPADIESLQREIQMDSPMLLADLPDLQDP

[21] = molecular target: 456 kinases (of these 395 non-mutant kinases) (Homo sapiens, UniProt Q7KZI7); conditions: MARK2; 10 μM
[22] = molecular target: 456 kinases (of these 395 non-mutant kinases) (Homo sapiens, UniProt P36894); conditions: BMPR1A; 10 μM
456 kinases (of these 395 non-mutant kinases) (Homo sapiens, UniProt P36894), sequence (P36894 24-532 limits assumed, stated change not applied): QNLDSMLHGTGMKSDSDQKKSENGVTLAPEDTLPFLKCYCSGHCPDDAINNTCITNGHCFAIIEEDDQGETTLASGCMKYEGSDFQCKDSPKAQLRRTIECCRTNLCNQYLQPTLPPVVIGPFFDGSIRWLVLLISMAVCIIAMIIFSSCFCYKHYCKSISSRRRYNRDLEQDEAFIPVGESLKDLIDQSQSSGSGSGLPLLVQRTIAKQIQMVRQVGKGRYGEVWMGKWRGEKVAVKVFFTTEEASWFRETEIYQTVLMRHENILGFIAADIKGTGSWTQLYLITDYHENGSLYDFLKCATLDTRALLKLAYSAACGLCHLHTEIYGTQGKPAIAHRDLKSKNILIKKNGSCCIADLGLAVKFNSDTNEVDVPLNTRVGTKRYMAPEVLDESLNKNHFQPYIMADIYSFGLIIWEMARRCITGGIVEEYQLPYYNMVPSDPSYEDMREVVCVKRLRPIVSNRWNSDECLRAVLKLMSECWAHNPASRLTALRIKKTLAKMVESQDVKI

[23] = molecular target: 456 kinases (of these 395 non-mutant kinases) (Homo sapiens, UniProt P36888, R834Q); conditions: FLT3(R834Q); 10 μM
[24] = molecular target: 456 kinases (of these 395 non-mutant kinases) (Homo sapiens, UniProt P45983); conditions: JNK1; 10 μM
[25] = molecular target: 456 kinases (of these 395 non-mutant kinases) (Homo sapiens, UniProt P54753); conditions: EPHB3; 10 μM
456 kinases (of these 395 non-mutant kinases) (Homo sapiens, UniProt P54753), sequence (P54753 34-998 limits assumed, change not shown): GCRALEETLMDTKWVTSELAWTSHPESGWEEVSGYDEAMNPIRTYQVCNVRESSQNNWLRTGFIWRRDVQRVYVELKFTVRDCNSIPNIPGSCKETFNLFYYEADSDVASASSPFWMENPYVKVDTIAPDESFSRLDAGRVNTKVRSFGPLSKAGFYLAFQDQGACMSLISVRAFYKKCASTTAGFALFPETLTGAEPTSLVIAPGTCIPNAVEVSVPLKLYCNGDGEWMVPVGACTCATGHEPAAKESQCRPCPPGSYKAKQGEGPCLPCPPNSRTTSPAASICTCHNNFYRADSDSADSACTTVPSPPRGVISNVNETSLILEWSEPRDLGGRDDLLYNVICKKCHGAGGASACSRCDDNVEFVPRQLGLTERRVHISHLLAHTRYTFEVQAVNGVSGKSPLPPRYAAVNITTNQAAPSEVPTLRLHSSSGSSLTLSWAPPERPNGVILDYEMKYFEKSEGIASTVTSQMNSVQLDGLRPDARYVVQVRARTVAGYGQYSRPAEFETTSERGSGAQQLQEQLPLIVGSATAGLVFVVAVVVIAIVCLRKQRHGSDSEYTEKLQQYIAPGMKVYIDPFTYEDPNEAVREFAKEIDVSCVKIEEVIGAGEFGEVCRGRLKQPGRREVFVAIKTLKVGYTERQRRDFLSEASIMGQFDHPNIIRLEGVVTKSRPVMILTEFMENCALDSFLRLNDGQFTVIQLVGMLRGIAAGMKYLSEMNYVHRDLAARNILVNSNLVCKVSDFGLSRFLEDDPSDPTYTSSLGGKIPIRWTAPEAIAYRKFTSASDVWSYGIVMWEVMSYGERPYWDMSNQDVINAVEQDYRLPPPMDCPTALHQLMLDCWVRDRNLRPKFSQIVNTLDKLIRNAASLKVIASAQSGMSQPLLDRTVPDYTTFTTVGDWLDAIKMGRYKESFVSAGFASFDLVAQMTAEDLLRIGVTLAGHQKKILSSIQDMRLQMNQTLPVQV

[26] = molecular target: 456 kinases (of these 395 non-mutant kinases) (Homo sapiens, UniProt P50613); conditions: CDK7; 10 μM
[27] = molecular target: 456 kinases (of these 395 non-mutant kinases) (Homo sapiens, UniProt Q02750); conditions: MEK1; 10 μM
[28] = molecular target: 456 kinases (of these 395 non-mutant kinases) (Homo sapiens, UniProt Q96NX5); conditions: CAMK1G; 10 μM
[29] = molecular target: 456 kinases (of these 395 non-mutant kinases) (Homo sapiens, UniProt O14920); conditions: IKK-beta; 10 μM
[30] = molecular target: 456 kinases (of these 395 non-mutant kinases) (Homo sapiens, UniProt P52564); conditions: MEK6; 10 μM
[31] = molecular target: 456 kinases (of these 395 non-mutant kinases) (Homo sapiens, UniProt P22694); conditions: PKAC-beta; 10 μM
[32] = molecular target: 456 kinases (of these 395 non-mutant kinases) (Homo sapiens, UniProt P29376); conditions: LTK; 10 μM

456 kinases (of these 395 non-mutant kinases) (Homo sapiens, UniProt P37173), sequence (P37173 23-567 limits assumed, change not shown): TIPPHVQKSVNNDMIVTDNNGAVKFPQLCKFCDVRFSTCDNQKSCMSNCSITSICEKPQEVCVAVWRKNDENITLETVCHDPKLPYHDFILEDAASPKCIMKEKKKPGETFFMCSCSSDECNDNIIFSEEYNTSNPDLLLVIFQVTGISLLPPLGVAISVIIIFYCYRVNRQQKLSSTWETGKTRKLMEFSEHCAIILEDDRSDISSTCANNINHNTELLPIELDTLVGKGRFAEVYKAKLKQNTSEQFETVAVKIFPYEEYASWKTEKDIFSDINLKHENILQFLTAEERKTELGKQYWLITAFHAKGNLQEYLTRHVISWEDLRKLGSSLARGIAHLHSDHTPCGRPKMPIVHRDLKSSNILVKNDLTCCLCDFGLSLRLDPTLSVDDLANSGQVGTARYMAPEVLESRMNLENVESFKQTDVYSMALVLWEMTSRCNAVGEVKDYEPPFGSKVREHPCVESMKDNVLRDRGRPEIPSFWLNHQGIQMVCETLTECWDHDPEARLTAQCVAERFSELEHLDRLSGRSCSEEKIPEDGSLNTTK

## CCc1ccccc1NC(=O)c1c(C)nsc1Nc1cnc2cc(F)ccc2n1 [Example 20, N-(2-Ethylphenyl)-5-[(6-fluoroquinoxalin-2-yl)amino]-3-methyl-1,2-thiazole-4-carboxamide]
[1]
  % Ctrl @ 10 μM: 75 % Ctrl
[2]
  % Ctrl @ 10 μM: 100 % Ctrl
[3]
  % Ctrl @ 10 μM: 87 % Ctrl
[4]
  % Ctrl @ 10 μM: 76 % Ctrl
[5]
  % Ctrl @ 10 μM: 100 % Ctrl
[6]
  % Ctrl @ 10 μM: 96 % Ctrl
[7]
  % Ctrl @ 10 μM: 99 % Ctrl
[8]
  % Ctrl @ 10 μM: 100 % Ctrl
[9]
  % Ctrl @ 10 μM: 99 % Ctrl
[10]
  % Ctrl @ 10 μM: 74 % Ctrl
[11]
  % Ctrl @ 10 μM: 100 % Ctrl
[12]
  % Ctrl @ 10 μM: 100 % Ctrl
[13]
  % Ctrl @ 10 μM: 100 % Ctrl
[14]
  % Ctrl @ 10 μM: 61 % Ctrl
[15]
  % Ctrl @ 10 μM: 88 % Ctrl
[16]
  % Ctrl @ 10 μM: 78 % Ctrl
[17]; RSK3(Kin.Dom.1-N-terminal)
  % Ctrl @ 10 μM: 72 % Ctrl
[17]; RSK3(Kin.Dom.2-C-terminal)
  % Ctrl @ 10 μM: 79 % Ctrl
[18]
  % Ctrl @ 10 μM: 100 % Ctrl
[19]
  % Ctrl @ 10 μM: 100 % Ctrl
[20]
  % Ctrl @ 10 μM: 100 % Ctrl
[21]
  % Ctrl @ 10 μM: 83 % Ctrl
[22]
  % Ctrl @ 10 μM: 100 % Ctrl
[23]
  % Ctrl @ 10 μM: 93 % Ctrl
[24]
  % Ctrl @ 10 μM: 100 % Ctrl
[25]
  % Ctrl @ 10 μM: 82 % Ctrl
[26]
  % Ctrl @ 10 μM: 92 % Ctrl
[27]
  % Ctrl @ 10 μM: 97 % Ctrl
[28]
  % Ctrl @ 10 μM: 86 % Ctrl
[29]
  % Ctrl @ 10 μM: 90 % Ctrl
[30]
  % Ctrl @ 10 μM: 95 % Ctrl
[31]
  % Ctrl @ 10 μM: 82 % Ctrl
[32]
  % Ctrl @ 10 μM: 68 % Ctrl
